This is an account of results in a melting point compilation (Tetko et al.; mined from patent text by program, amines drawn as free bases though some values may be those of a salt).

The structures appear in SMILES notation.

Usually melting point stands for the temperature of the solid-liquid transition.

In turn, `COc1ccc(Sc2ccc(C=[N+]([O-])C(C)(C)C)o2)cc1` gave a melting point of 91.7 °C. The same measure for `O=C(O)CCc1cn(Cc2ccc(OCc3cccnc3)cc2)nc1-c1ccccc1`: 112 to 113 °C; for `CC(C)(C)c1cc(-c2nn(Cc3ccc([N+](=O)[O-])cc3)c3ncccc23)cc(C(C)(C)C)c1O`: 143 to 145 °C. In turn, `CC(C)(C)OC(=O)Nc1ccc(-c2cccc(F)c2)cc1NC(=O)CC(=O)c1cccc(-n2ccnc2)c1` gave a melting point of 70 to 83 °C. `COC(=O)c1c(C(=O)OC)c(-c2ccc(OC)cc2)n2c1Cc1cc(OC)ccc1-2` showed a melting point of 240 to 242 °C. `O=c1[nH]c(=S)n2c3c1cnn3C(c1cccc(F)c1)=CC2` displayed a melting point of 298 to 300 °C. In the case of `Cn1c(=O)cc(CCCl)c2cc(Cl)ccc21`, the melting point was 120 to 122 °C.

Take `CCOC(=O)C1=Cc2cc(Cl)cc(-c3nc4ccccc4[nH]3)c2OC1C(F)(F)F` (configuration not stated): the melting point was more than 300 °C. As for `COc1ccc(-c2nc(CSCCO)nc3cc(OC)c(OC)cc23)cc1OC`, the melting point was 154 to 155 °C. Take `O=C1COC(CCCOC(=O)c2ccccc2)(c2ccc(Cl)c(Cl)c2)CN1` (configuration not stated): the melting point stood at 92 °C. Next, `O=C(O)c1ccc(N2C(=O)C(=Cc3ccccc3)SC2=S)cc1`: 298 to 301 °C; `CC1(NC(=O)C(F)(F)F)CN(c2cc3c(cc2F)c(=O)c(C(=O)O)cn3-c2ccc(F)cc2)C1`: 146 to 151 °C; `Cc1cc([C@@H]2C[C@H]2c2nc3ccccc3n2C)cc(-n2nc(C)nc2C)n1` (relative stereo): 157 to 159 °C. On to `CCNC(=N)NC(=O)c1c(-c2ccccc2)noc1C`, for which the melting point was 215 °C. Turning to `CCCCc1ncc(/C=C(\Cc2cccs2)C(=O)O)n1Cc1ccc(C(=O)O)cc1Cl`, the melting point was 234 to 236 °C.

Molecule `Cn1cc(C(=O)NCc2ccc(Br)cc2)c(=O)c2cc(CN3CCOCC3)sc21` registered a melting point of 245 to 246 °C. Take `O=C(Nc1ccc2c(c1)CCN(Cc1ccccc1)C2)c1ccccc1-c1ccc(C(F)(F)F)cc1`: the melting point was 230 to 232 °C. `N#CC1(C(O)(Cn2cncn2)c2ccc(Cl)cc2)CC1` (configuration not stated) returned a melting point of 107 °C.

The molecule `CCOC(=O)c1cc(=O)c2ccc(NCc3ccccc3)c([N+](=O)[O-])c2o1` had a melting point of 168 °C. For `O=C(Cc1ccc(Cl)cc1Cl)Nc1ccccc1`, the melting point was 146 °C. `CCCCCCCCCCCC(=O)c1ccc(-c2ccc(OCC(C)OC(=O)CCCCCC)c(Cl)c2)cc1` (configuration not stated) yielded a melting point of 43.2 to 43.4 °C. As to `CC(C)(C)c1cc(-c2nn(CC(F)(F)F)c3ncccc23)cc(C(C)(C)C)c1O`, the melting point lay in the range of 104 to 106 °C. As to `COc1ccccc1N1CCN(Cc2ccc(O)cc2)CC1`, the melting point came to 172 °C.

`Cc1cccc(-c2nc3ccc(OCC(C)N(C)C)cc3n2Cc2ccccc2)c1` (configuration not stated) yielded a melting point of 74 °C. The same measure for `Cc1c(C)c2c(c(C)c1N)CC(C)(CN1CCN(C)CC1)O2` (configuration not stated): 76 to 77 °C; for `COC(=O)[C@H](Cc1ccc([N+](=O)[O-])cc1)NC(=O)c1c(C)cccc1Cl`: 120 to 123 °C. As for `CCOC(=O)c1cc(Cl)c2cccc(OC)c2n1`, the melting point was in the range of 131 to 132 °C. Molecule `CC(=O)NCC1CC(c2ccc(F)c(F)c2)=NO1` (configuration not stated) registered a melting point of 136 to 137 °C.

In turn, `CC(C)NC(=O)N1CCc2[nH]cnc2C1c1ccccc1` (configuration not stated) gave a melting point of 245 °C.

Molecule `Cc1nc(-c2ccccc2)cc(=O)[nH]1` registered a melting point of 238 to 240 °C. Molecule `O=C(O)[C@H]1C[C@H](NCc2ccccc2)c2c(Cl)cc(Cl)cc2N1` (relative stereo) yielded a melting point of 112 to 114 °C. Molecule `COc1cc(I)ccc1-c1ccccc1` gave a melting point of 57 °C. `C#CCNC(=O)c1ncn2c1CN(C)C(=O)c1sccc1-2` displayed a melting point of 275 to 277 °C.

The molecule `COc1cc(NC2CCCC2)n2nc(-c3ccc(F)cc3)c(-c3ccnc(NC4CCCC4)n3)c2c1` showed a melting point of 167 to 169 °C. In turn, `COc1ccc(N2C(=O)C(O[Si](C(C)C)(C(C)C)C(C)C)C2c2ccco2)cc1` (configuration not stated) came in with a melting point of 109 to 110 °C. Molecule `N#Cc1ccc(OCc2ccnnc2)cc1OC(C(=O)O)c1ccccc1Cl` (racemic) returned a melting point of 203 to 205 °C. Consider `CCCCCCCCCCCCCCCCOC(=O)c1cccc([N+](=O)[O-])c1`, for which the melting point lay in the range of 51 to 53 °C. As for `N#Cc1c(O)cc(C(F)(F)F)cc1Cl`, the melting point came to 138 °C. As for `COC(=O)c1cc2cc(C3OCCO3)ccc2[nH]1`, the melting point lay in the range of 71 to 72 °C. `CCOC(=O)c1cccc(-c2nccc(OCCc3ccc(OC)c(OC)c3)n2)c1` returned a melting point of 101 to 102 °C.

For the molecule `O=c1[nH]c2cc(Cl)ccc2c(O)c1SC/C=C\c1ccccc1`, the melting point was more than 300 °C. On to `NC(=S)Nc1ccccc1-c1ccccc1F`, for which the melting point fell in the range of 175 to 177 °C. Next, `CCC(C)(C)C(=O)c1ccc(C(=O)O)cc1`: 128 to 129 °C; `Cc1ccc(-c2cc(C)c(C(=O)N=C(N)N)cc2S(C)(=O)=O)cc1`: 222 to 224 °C; `NC(=O)CCn1ccn(C2CCc3ccccc3C2)c1=S` (configuration not stated): 180 to 181 °C. The molecule `Cc1ccc(CCc2n[nH]c3c2c(=O)n(-c2ccccc2)c2ncccc32)cc1` registered a melting point of 264 to 265 °C. Molecule `CCCCC[C@H]1CC[C@H](C(=O)Oc2ccc(OC(F)F)cc2)CC1` returned a melting point of 54 °C.

Molecule `CCC(O)C#Cc1ncn2c1CN(C)C(=O)c1c(Cl)cccc1-2` (configuration not stated) returned a melting point of 178 °C. As for `CC(=O)N1CCc2c(cccc2NS(=O)(=O)c2ccccc2)C1`, the melting point lay within 131 to 132 °C. `CCCCCCCCCCCC(=O)N(N=C=S)C(CCCCN)C(=O)O` (configuration not stated): the melting point fell in the range of 37 to 39 °C. Molecule `CC(Cn1ncnn1)n1nnc2cc3c(=O)n(CC(C)(C)O)nnc3cc2c1=O` (configuration not stated) came in with a melting point of 128 to 130 °C. Take `Cc1[nH]n(Cc2ccc([N+](=O)[O-])cc2)c2nc(-c3ccncc3)nc(=O)c1-2`: the melting point fell in the range of 275 to 281 °C. Take `CCN(CC)c1ccc(C2(c3c(C)n(CC)c4ccccc34)OC(=O)c3ccccc32)c(N(CC)CC)c1` (configuration not stated): the melting point is 139 to 140 °C. For `Cc1cccc(C=CC(=O)c2ccc([N+](=O)[O-])cc2)c1`, the melting point fell in the range of 130 to 132 °C. Turning to `Cc1cc2c(nc(C)n2CCc2ccccc2)c(N(Cc2ccccc2)Cc2ccccc2)n1`, the melting point was in the range of 124 to 126 °C.

`COCCNC(=O)c1cccc(-c2cccc3cc(Cc4cc(F)ccc4F)sc23)c1` yielded a melting point of 92 to 94 °C. Molecule `COC(=O)c1cc2c(O)c(C(=O)NCc3ccc(Cl)cc3)cnc2s1` returned a melting point of 238 to 240 °C.

In the case of `CC(ON(C(C)(C)CO)C(C)(C)CO)c1ccccc1` (configuration not stated), the melting point was 79 to 81 °C. `Cc1c[nH]c(=O)c2ccccc12` returned a melting point of 175 to 176 °C. For `N[C@@H](Cc1ccccc1)C(=O)N1CCC[C@H]1C(=O)OCc1ccccc1`, the melting point was in the range of 120 to 121 °C. The same measure for `COC(=O)C12C3C4C1(C(=O)OC)C1(Cl)C2C3(C(=O)OC)C41C(=O)OC` (configuration not stated): 134 to 135 °C; for `Cc1cc(OC(F)(F)F)ccc1NC(=O)c1cccc(I)c1C(=O)NC(C)CC(=O)N(C)C` (configuration not stated): 104 °C. The same measure for `Oc1ccc2nc(-c3cccc(Br)c3)oc2c1`: 248 °C; for `CC(=NNC(=O)c1ccccc1)c1cccc(Cl)c1O`: 202 to 203 °C; for `CC(C)(C)C(O)(CCC1CCCCC1)Cn1cncn1` (configuration not stated): 63 to 67 °C. Molecule `COC(=O)CCC1=NC=C(c2ccc3c(c2)NC(=O)CO3)C(c2ccccc2)S1` (configuration not stated) had a melting point of 119 to 121 °C.

Regarding `COc1ccc2ccc(NC(=O)c3cccc(N(C)C)c3)nc2n1`, the melting point amounted to 130 °C. For the molecule `C#Cc1[nH]c2cccc3c2c1CC1C3CC(NC(=O)N(CC)CC)CN1C` (configuration not stated), the melting point came to 192 °C. On to `CCCCCCCCCCNC(=O)c1ccc(N(CC(=O)OC)CC(=O)OC)cc1`, for which the melting point is 104 to 106 °C.

Turning to `O=c1[nH]ccc2nc(C(F)(F)F)nn12`, the melting point was in the range of 203 to 205 °C. `CCOC(=O)c1ccc(-c2nc(COc3ccc(COc4nn(-c5ccccc5)cc4/C=C/P(=O)(OCC)OCC)cc3OC)c(C)o2)o1` had a melting point of 129 to 130 °C. The molecule `Cc1ccccc1CC(Cc1ccccc1C)C(=O)O` gave a melting point of 94 to 96 °C.

On to `O=C1c2ccccc2CN1C1CCN(c2ccc(C(OCc3ccccn3)c3ccccc3)cc2)CC1` (configuration not stated), for which the melting point was in the range of 149 to 151 °C. `ClCCOc1ccc(C2=C(c3ccccc3)CCCc3ccccc32)cc1` displayed a melting point of 171 to 172 °C. Turning to `CCCn1cc(C(=O)OCC)c(C(=O)OCC)c1N1C(=O)c2ccccc2C1=O`, the melting point was 100 to 101 °C. For the molecule `CCOC(=O)c1nc2scc(NC(=O)Cc3ccccc3)c2c(=O)[nH]1`, the melting point was determined as 237 °C. On to `CCCSc1nc(C)c(CC(=O)O)n1-c1ccccc1Cl`, for which the melting point lay within 68 to 71 °C. Molecule `COc1ccc(C(=O)Nc2c(Cl)cncc2Cl)c2c1oc1ccc(NCC(=O)O)cc12` gave a melting point of more than 260 °C. On to `CNCCOc1ccc(C(=C(c2ccccc2)C(F)(F)F)c2ccc(OCOC)cc2)cc1`, for which the melting point lay within 87 to 90 °C. The same measure for `CCOC(=O)Cc1nc(-c2ccccc2)oc1-c1ccsc1`: 90 to 91 °C. `CC(C)NS(=O)(=O)c1ccc(-c2ccc3nnn(Cc4ccc5ncccc5c4)c3n2)cc1` showed a melting point of 154 to 156 °C. `CCc1c(CO)[nH]c(=O)c(I)c1Oc1cc(C)cc(C)c1` displayed a melting point of 70 °C. Molecule `O=C1NNC(c2ccc3c(c2)CC2(CCN(C4CCC4)CC2)O3)C2C=C12` (configuration not stated) gave a melting point of 189 to 191 °C. The same measure for `CCCn1nc(C(C)(F)F)nc1Cc1ccc(-c2ccccc2-c2nnn[nH]2)nc1`: 200 °C; for `N#Cc1cc(N)ccc1N1CCOCC1`: 147 to 148 °C.

For the molecule `COc1cc(C=O)ccc1OCc1sc(-c2ccccc2)nc1C`, the melting point lay within 118 to 119 °C. `Cc1cnc(CCCCNc2ncc(Cc3ccc(C)nc3)c(=O)[nH]2)c(N)c1` yielded a melting point of 86 to 89 °C.
